Data reported in patent publication US10370360B2, “Small-molecule inhibitors targeting discoidin domain receptor 1 and uses thereof” (priority 2014, dated 2019).

How the values were obtained:
Type in all cases: biochemical
[1] = target: c-Kit (Homo sapiens (Human), UniProt P10721); assay: FRET-based Z'-Lyte kinase assay, c-kit; conditions: 300 μM ATP
[2] = target: DDR2 (Homo sapiens (Human), UniProt Q16832); assay: LanthaScreen Eu kinase activity assay, DDR2; conditions: 100 nM ATP
[3] = target: Bcr-Abl; assay: FRET-based Z'-Lyte kinase assay, Abl; conditions: 10 μM ATP; cells printed in μM
[4] = target: DDR1 (Homo sapiens (Human), UniProt Q08345); assay: LanthaScreen Eu kinase activity assay, DDR1; conditions: 100 nM ATP
Sequence of DDR1 (Q08345 19-913): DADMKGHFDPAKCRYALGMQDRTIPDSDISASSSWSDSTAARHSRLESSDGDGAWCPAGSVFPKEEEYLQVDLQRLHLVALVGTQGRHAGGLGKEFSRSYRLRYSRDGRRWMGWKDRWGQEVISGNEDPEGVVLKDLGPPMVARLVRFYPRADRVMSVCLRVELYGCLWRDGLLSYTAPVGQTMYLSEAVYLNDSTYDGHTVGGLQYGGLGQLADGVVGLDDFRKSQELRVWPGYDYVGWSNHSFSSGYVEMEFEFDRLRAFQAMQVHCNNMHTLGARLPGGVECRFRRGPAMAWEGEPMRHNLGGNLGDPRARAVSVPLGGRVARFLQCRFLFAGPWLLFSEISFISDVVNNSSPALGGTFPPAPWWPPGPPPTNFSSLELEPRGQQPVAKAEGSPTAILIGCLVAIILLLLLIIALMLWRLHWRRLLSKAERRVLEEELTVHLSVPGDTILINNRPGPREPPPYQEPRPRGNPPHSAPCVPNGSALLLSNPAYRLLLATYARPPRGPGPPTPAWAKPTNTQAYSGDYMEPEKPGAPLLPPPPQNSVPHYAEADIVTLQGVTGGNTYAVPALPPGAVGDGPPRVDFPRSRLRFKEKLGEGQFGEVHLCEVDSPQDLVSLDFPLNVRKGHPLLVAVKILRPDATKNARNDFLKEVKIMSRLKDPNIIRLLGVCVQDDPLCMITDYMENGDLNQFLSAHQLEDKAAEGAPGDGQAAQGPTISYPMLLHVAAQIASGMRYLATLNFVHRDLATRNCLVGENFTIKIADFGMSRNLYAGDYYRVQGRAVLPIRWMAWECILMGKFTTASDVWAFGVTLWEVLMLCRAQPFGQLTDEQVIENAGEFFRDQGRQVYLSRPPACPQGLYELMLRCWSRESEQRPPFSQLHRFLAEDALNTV

Sequence of c-Kit (P10721 26-976): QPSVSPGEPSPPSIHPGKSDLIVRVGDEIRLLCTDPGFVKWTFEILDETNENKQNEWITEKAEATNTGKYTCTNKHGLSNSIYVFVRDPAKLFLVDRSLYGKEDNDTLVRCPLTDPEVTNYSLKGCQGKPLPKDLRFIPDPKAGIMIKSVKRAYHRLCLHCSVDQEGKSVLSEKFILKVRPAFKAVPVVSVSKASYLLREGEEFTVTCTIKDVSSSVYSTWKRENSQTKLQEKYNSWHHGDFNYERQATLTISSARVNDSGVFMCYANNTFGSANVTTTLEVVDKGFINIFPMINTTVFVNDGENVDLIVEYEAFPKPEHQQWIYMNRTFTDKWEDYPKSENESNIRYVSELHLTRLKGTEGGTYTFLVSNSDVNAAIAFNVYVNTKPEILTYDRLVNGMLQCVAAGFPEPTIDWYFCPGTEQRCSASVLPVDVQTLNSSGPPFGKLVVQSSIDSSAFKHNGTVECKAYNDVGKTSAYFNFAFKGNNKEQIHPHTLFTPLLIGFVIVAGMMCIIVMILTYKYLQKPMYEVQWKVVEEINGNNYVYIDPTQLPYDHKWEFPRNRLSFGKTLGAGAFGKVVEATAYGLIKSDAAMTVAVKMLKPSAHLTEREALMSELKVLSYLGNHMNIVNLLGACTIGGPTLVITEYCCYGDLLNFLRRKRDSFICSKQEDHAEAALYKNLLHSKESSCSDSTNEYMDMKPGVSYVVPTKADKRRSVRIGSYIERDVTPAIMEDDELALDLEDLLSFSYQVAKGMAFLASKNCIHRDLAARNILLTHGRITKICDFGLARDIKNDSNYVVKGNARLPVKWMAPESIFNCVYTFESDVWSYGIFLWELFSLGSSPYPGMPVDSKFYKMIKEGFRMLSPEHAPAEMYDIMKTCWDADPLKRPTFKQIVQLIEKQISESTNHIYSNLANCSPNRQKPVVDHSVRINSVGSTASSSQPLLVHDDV
Sequence of DDR2 (Q16832 22-855): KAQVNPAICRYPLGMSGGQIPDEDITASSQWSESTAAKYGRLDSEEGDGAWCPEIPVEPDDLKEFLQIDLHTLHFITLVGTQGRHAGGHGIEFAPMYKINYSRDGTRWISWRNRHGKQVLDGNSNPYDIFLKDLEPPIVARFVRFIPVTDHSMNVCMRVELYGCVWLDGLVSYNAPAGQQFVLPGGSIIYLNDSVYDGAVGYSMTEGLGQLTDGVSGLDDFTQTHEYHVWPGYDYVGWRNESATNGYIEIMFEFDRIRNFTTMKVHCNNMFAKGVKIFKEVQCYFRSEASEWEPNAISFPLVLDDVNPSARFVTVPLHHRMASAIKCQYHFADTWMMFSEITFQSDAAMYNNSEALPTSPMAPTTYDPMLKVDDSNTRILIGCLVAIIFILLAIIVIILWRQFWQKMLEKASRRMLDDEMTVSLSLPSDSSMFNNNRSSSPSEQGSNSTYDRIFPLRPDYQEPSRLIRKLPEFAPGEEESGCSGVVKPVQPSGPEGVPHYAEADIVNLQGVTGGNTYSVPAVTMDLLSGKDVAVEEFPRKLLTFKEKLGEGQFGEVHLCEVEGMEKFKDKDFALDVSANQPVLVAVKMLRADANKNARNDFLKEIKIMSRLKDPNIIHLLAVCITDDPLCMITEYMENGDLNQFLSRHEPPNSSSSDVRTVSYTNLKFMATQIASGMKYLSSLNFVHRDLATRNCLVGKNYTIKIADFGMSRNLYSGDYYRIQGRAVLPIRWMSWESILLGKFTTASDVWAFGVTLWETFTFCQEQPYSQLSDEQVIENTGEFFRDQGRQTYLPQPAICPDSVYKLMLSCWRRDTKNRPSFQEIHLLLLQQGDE
Sequence of Bcr-Abl (P00519 whole entry): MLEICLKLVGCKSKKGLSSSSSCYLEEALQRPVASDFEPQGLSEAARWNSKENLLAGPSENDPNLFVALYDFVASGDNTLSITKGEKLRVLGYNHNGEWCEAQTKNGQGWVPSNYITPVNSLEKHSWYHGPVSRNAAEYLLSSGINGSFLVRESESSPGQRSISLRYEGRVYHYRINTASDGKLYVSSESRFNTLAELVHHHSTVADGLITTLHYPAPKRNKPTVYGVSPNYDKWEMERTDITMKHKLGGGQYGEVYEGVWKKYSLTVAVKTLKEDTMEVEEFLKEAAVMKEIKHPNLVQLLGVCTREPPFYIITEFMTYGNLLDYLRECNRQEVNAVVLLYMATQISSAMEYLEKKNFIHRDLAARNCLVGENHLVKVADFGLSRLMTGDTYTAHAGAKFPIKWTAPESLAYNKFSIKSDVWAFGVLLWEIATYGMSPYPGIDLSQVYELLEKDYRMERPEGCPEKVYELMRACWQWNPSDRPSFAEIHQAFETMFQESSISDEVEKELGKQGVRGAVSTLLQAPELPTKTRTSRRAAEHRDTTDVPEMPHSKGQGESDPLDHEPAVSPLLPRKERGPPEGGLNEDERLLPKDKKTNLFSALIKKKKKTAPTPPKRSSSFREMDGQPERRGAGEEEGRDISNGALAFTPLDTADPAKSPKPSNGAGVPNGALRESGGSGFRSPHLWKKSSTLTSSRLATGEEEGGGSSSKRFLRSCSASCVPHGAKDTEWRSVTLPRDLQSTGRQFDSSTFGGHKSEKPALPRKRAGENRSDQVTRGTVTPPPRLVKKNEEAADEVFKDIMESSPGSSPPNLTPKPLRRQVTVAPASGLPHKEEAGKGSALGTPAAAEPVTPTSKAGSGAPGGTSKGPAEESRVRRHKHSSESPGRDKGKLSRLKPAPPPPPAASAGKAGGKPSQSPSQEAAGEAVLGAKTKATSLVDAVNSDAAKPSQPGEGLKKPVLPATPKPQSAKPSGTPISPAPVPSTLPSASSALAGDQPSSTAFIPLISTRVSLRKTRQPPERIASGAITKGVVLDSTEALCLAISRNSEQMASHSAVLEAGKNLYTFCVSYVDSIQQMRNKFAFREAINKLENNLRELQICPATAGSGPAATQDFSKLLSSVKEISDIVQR

IC50 [1] | IC50 ([2]; cells printed in μM) | IC50 [3] | IC50 [4] | IC50 ([2]; cells without unit) | SMILES
> 10000 nM | – | – | – | – | CC1CN(c2cncnc2)Cc2cc(C(=O)Nc3cc(CN4CCN(C)CC4)cc(C(F)(F)F)c3)ccc21 (stereo not shown) [Example 1, 4-methyl-N-(3-((4-methylpiperazin-1-yl)methyl)-5-(trifluoromethyl)phenyl)-2-(pyrimidin-5-yl)-1,2,3,4-tetrahydroisoquinoline-7-carboxamide]
> 10000 nM | 8 µM | – | – | – | CN1CCN(Cc2cc(NC(=O)c3ccc4c(c3)CN(c3cncnc3)CC4)cc(C(F)(F)F)c2)CC1 [Example 3, N-(3-((4-methylpiperazin-1-yl)methyl)-5-(trifluoromethyl)phenyl)-2-(pyrimidin-5-yl)-1,2,3,4-tetrahydroisoquinoline-7-carboxamide]
> 10000 nM | 4.3 µM | – | – | – | CN1CCN(Cc2cc(NC(=O)c3ccc4c(c3)CN(c3cccnc3)CC4)cc(C(F)(F)F)c2)CC1 [Example 4, N-(3-((4-methylpiperazin-1-yl)methyl)-5-(trifluoromethyl)phenyl)-2-(pyridin-3-yl)-1,2,3,4-tetrahydroisoquinoline-7-carboxamide]
8700 nM | – | – | – | – | CN1CCN(Cc2cc(NC(=O)c3ccc4c(c3)CN(c3cnc5ccccc5c3)CC4)cc(C(F)(F)F)c2)CC1 [Example 5, N-(3-((4-methylpiperazin-1-yl)methyl)-5-(trifluoromethyl)phenyl)-2-(quinolin-3-yl)-1,2,3,4-tetrahydroisoquinoline-7-carboxamide]
> 10000 nM | 1.2 µM | – | – | – | CC1CN(c2cccnc2)Cc2cc(C(=O)Nc3cc(CN4CCN(C)CC4)cc(C(F)(F)F)c3)ccc21 (stereo not shown) [Example 6, 4-methyl-N-(3-((4-methylpiperazin-1-yl)methyl)-5-(trifluoromethyl)phenyl)-2-(pyridin-3-yl)-1,2,3,4-tetrahydroisoquinoline-7-carboxamide]
> 10000 nM | 4.5 µM | > 10 µM | 223 nM | – | CN1CCN(Cc2cc(NC(=O)c3ccc4c(c3)CN(c3cncnc3)CC4(C)C)cc(C(F)(F)F)c2)CC1 [Example 7, 4,4-dimethyl-N-(3-((4-methylpiperazin-1-yl)methyl)-5-(trifluoromethyl)phenyl)-2-(pyrimidin-5-yl)-1,2,3,4-tetrahydroisoquinoline-7-carboxamide]
> 10000 nM | – | – | – | 0.915 µM | CC1CN(c2cncnc2)Cc2cc(C(=O)Nc3cc(CN4CCN(C)CC4)c(Cl)c(C(F)(F)F)c3)ccc21 (stereo not shown) [Example 8, N-(4-chloro-3-((4-methylpiperazin-1-yl)methyl)-5-(trifluoromethyl)phenyl)-4-methyl-2-(pyrimidin-5-yl)-1,2,3,4-tetrahydroisoquinoline-7-carboxamide]
> 10000 nM | 1.1 µM | – | – | – | Cc1c(CN2CCN(C)CC2)cc(NC(=O)c2ccc3c(c2)CN(c2cncnc2)CC3C)cc1C(F)(F)F (stereo not shown) [Example 9, 4-methyl-N-(4-methyl-3-((4-methylpiperazin-1-yl)methyl)-5-(trifluoromethyl)phenyl)-2-(pyrimidin-5-yl)-1,2,3,4-tetrahydroisoquinoline-7-carboxamide]
> 10000 nM | – | > 10 µM | 36.7 nM | 0.449 µM | CC1CN(c2cncnc2)Cc2cc(C(=O)Nc3cc(CCN4CCN(C)CC4)cc(C(F)(F)F)c3)ccc21 (stereo not shown) [Example 10, 4-methyl-N-(3-(2-(4-methylpiperazin-1-yl)ethyl)-5-(trifluoromethyl)phenyl)-2-(pyrimidin-5-yl)-1,2,3,4-tetrahydroisoquinoline-7-carboxamide]
> 10000 nM | 2.2 µM | > 10 µM | 132 nM | – | CC1CN(c2cncnc2)Cc2cc(C(=O)Nc3cc(N4CCN(C)CC4)cc(C(F)(F)F)c3)ccc21 (stereo not shown) [Example 11]
> 10000 nM | – | – | 19.9 nM | 0.334 µM | CC1CN(c2cncnc2)Cc2cc(C(=O)Nc3ccc(CN4CCN(C)CC4)c(C(F)(F)F)c3)ccc21 (stereo not shown) [Example 12, 4-methyl-N-(4-((4-methylpiperazin-1-yl)methyl)-3-(trifluoromethyl)phenyl)-2-(pyrimidin-5-yl)-1,2,3,4-tetrahydroisoquinoline-7-carboxamide]
> 10000 nM | 10 µM | > 10 µM | 191 nM | – | CC1CN(c2cncnc2)Cc2cc(C(=O)Nc3cccc(C(F)(F)F)c3)ccc21 (stereo not shown) [Example 13, 4-methyl-2-(pyrimidin-5-yl)-N-(3-(trifluoromethyl)phenyl)-1,2,3,4-tetrahydroisoquinoline-7-carboxamide]
> 10000 nM | – | > 10 µM | 25.6 nM | 0.604 µM | CC1CN(c2cncnc2)Cc2cc(C(=O)Nc3cc(CN4CCCN(C)CC4)cc(C(F)(F)F)c3)ccc21 (stereo not shown) [Example 14, 4-methyl-N-(3-((4-methyl-1,4-diazepan-1-yl)methyl)-5-(trifluoromethyl)phenyl)-2-(pyrimidin-5-yl)-1,2,3,4-tetrahydroisoquinoline-7-carboxamide]
> 10000 nM | 1.4 µM | > 10 µM | 50.5 nM | – | CCc1cc(CN2CCN(C)CC2)cc(NC(=O)c2ccc3c(c2)CN(c2cncnc2)CC3C)c1 (stereo not shown) [Example 15, N-(3-ethyl-5-((4-methylpiperazin-1-yl)methyl)phenyl)-4-methyl-2-(pyrimidin-5-yl)-1,2,3,4-tetrahydroisoquinoline-7-carboxamide]
> 10000 nM | 1.2 µM | – | – | – | CC1CN(c2cncnc2)Cc2cc(C(=O)Nc3cc(CN(C)CCN(C)C)cc(C(F)(F)F)c3)ccc21 (stereo not shown) [Example 23, N-(3-(((2-(dimethylamino)ethyl)(methyl)amino)methyl)-5-(trifluoromethyl)phenyl)-4-methyl-2-(pyrimidin-5-yl)-1,2,3,4-tetrahydroisoquinoline-7-carboxamide]
> 10000 nM | – | – | – | 0.672 µM | CC1CN(c2cncnc2)Cc2cc(C(=O)Nc3cc(CN4CC[C@@H](N(C)C)C4)cc(C(F)(F)F)c3)ccc21 (stereo partly drawn) [Example 24, N-(3-(((R)-3-(dimethylamino)pyrrolidin-1-yl)methyl)-5-(trifluoromethyl)phenyl)-4-methyl-2-(pyrimidin-5-yl)-1,2,3,4-tetrahydroisoquinoline-7-carboxamide]
> 10000 nM | – | – | – | 0.862 µM | CC1CN(c2cncnc2)Cc2cc(C(=O)Nc3cc(CN4CC[C@H](N(C)C)C4)cc(C(F)(F)F)c3)ccc21 (stereo partly drawn) [Example 25, N-(3-(((S)-3-(dimethylamino)pyrrolidin-1-yl)methyl)-5-(trifluoromethyl)phenyl)-4-methyl-2-(pyrimidin-5-yl)-1,2,3,4-tetrahydroisoquinoline-7-carboxamide]
> 10000 nM | 1.4 µM | – | – | – | CC1CN(c2cncnc2)Cc2cc(C(=O)Nc3cc(CN4CCN(C)CC4)c(F)c(C(F)(F)F)c3)ccc21 (stereo not shown) [Example 27, N-(4-fluoro-3-((4-methylpiperazin-1-yl)methyl)-5-(trifluoromethyl)phenyl)-4-methyl-2-(pyrimidin-5-yl)-1,2,3,4-tetrahydroisoquinoline-7-carboxamide]
> 10000 nM | – | – | 66.6 nM | 0.94 µM | CC1CN(c2cncnc2)Cc2cc(C(=O)Nc3cc(CN4CCN(C)CC4)cc(C(C)(C)C)c3)ccc21 (stereo not shown) [Example 28, N-(3-tert-butyl-5-((4-methylpiperazin-1-yl)methyl)phenyl)-4-methyl-2-(pyrimidin-5-yl)-1,2,3,4-tetrahydroisoquinoline-7-carboxamide]
> 10000 nM | 1.4 µM | – | 44.6 nM | – | CC1CN(c2cncnc2)Cc2cc(C(=O)Nc3cc(CN4CCN(C)CC4)cc(-c4ccccc4)c3)ccc21 (stereo not shown) [Example 29, 4-methyl-N-(5-((4-methylpiperazin-1-yl)methyl)biphenyl-3-yl)-2-(pyrimidin-5-yl)-1,2,3,4-tetrahydroisoquinoline-7-carboxamide]
> 10000 nM | 1.1 µM | – | 89 nM | – | CC1CN(c2cncnc2)Cc2cc(C(=O)Nc3cc(CN4CCN(C)CC4)cc(C4CC4)c3)ccc21 (stereo not shown) [Example 31, N-(3-cyclopropyl-5-((4-methylpiperazin-1-yl)methyl)phenyl)-4-methyl-2-(pyrimidin-5-yl)-1,2,3,4-tetrahydroisoquinoline-7-carboxamide]
> 10000 nM | – | – | – | 0.306 µM | CC1CN(c2cncnc2)Cc2cc(C(=O)Nc3cc(CN4CCN(C)CC4)cc(C4CCCC4)c3)ccc21 (stereo not shown) [Example 32, N-(3-cyclopentyl-5-((4-methylpiperazin-1-yl)methyl)phenyl)-4-methyl-2-(pyrimidin-5-yl)-1,2,3,4-tetrahydroisoquinoline-7-carboxamide]
> 10000 nM | 2 µM | – | – | – | CCC1CN(c2cncnc2)Cc2cc(C(=O)Nc3cc(CN4CCN(C)CC4)cc(C(F)(F)F)c3)ccc21 (stereo not shown) [Example 34, 4-ethyl-N-(3-((4-methylpiperazin-1-yl)methyl)-5-(trifluoromethyl)phenyl)-2-(pyrimidin-5-yl)-1,2,3,4-tetrahydroisoquinoline-7-carboxamide]
> 10000 nM | 7.8 µM | – | – | – | CN1CCN(Cc2cc(C(=O)Nc3ccc4c(c3)CN(c3cncnc3)CC4)cc(C(F)(F)F)c2)CC1 [Example 36, 3-((4-methylpiperazin-1-yl)methyl)-N-(2-(pyrimidin-5-yl)-1,2,3,4-tetrahydroisoquinolin-7-yl)-5-(trifluoromethyl)benzamide]
> 10000 nM | – | – | – | – | C[C@@H]1CN(c2cncnc2)Cc2cc(C(=O)Nc3cc(CN4CCN(C)CC4)cc(C(F)(F)F)c3)ccc21 [Example 37, (S)-4-methyl-N-(3-((4-methylpiperazin-1-yl)methyl)-5-(trifluoromethyl)phenyl)-2-(pyrimidin-5-yl)-1,2,3,4-tetrahydroisoquinoline-7-carboxamide]
> 10000 nM | – | – | – | – | C[C@H]1CN(c2cncnc2)Cc2cc(C(=O)Nc3cc(CN4CCN(C)CC4)cc(C(F)(F)F)c3)ccc21 [Example 38, (R)-4-methyl-N-(3-((4-methylpiperazin-1-yl)methyl)-5-(trifluoromethyl)phenyl)-2-(pyrimidin-5-yl)-1,2,3,4-tetrahydroisoquinoline-7-carboxamide]
